In patent publication US11214835B1, “Methods and compositions for diagnosis and management of neurodegerative diseases” (UNIVERSITY OF SOUTH FLORIDA, priority 2017, dated 2022):

Assays:
GAS5 transcript = assay: RNA-EMSA (REMSA) of compound binding to biotin-labeled GAS5 transcript; settings: 0.1 nM biotin-labeled GAS5, 10 nM compound, yeast tRNA, 20 min at room temperature
Protocol: RNA-EMSA was performed as previously described (see e.g. Apostolatos, H., Apostolatos, A., Vickers, T., Watson, J. E., Song, S., Vale, F., Cooper, D. R., Sanchez-Ramos, J., and Patel, N. A. (2010) Vitamin A metabolite, all-trans-retinoic acid, mediates alternative splicing of protein kinase C deltaVIII (PKCdeltaVIII) isoform via splicing factor SC35. J Biol Chem 285, 25987-25995 and Patel, R. S., Carter, G., Cooper, D. R., Apostolatos, H., and Patel, N. A. (2014) Transformer 2beta homolog (Drosophila) (TRA2B) regulates protein kinase C deltaI (PKCdeltaI) splice variant expression during 3T3L1 preadipocyte cell cycle. J Biol Chem 289, 31662-31672
Briefly, GAS5 was cloned in TOPO vector which has the T7 promoter. […] 0.1 nM of transcribed, biotin-labeled GAS5 was incubated with 10 nM G5-1397 in presence of 10U yeast tRNA and 10 units of RNase inhibitor in a final volume of 10 μl of RNA shift buffer for 20 min at room temperature and detected using Biotin Chromogenic Detection kit (ThermoFisher). […]
As the compound(s) were designed to bind to GAS5 such that it would disrupt binding to UPF1, the compound(s) ability to bind to GAS5 was examined. […] Next, it was evaluated whether NPG567 could stabilize GAS5 in HT22 cells over-expressing UPF1 (from Addgene). […] GAS5 levels were measured using SYBR Green qPCR. […]

DM adipocytes = assay: Cell viability / toxicity in DM adipocytes; format: cell-based, human; settings: 20 nM, 24 hours
GAS5 [1] = assay: GAS5 stabilization in HT22 cells over-expressing UPF1, SYBR Green qPCR; format: cell-based, mouse; settings: pre-treated 10 nM for 1 hour, then UPF1 transfection for 24 hours
Protocol: As the compound(s) were designed to bind to GAS5 such that it would disrupt binding to UPF1, the compound(s) ability to bind to GAS5 was examined. RNA-EMSA (REMSA) was performed as previously described. Briefly, GAS5 was cloned in TOPO vector which has the T7 promoter. In vitro transcription assay was performed with biotin-label using RiboScribe kit using T7 RNA polymerase at 37° C. for 2 h in the presence of nucleotides, RNase inhibitor, and 5× transcription buffer. 0.1 nM of transcribed, biotin-labeled GAS5 was incubated with 10 nM NPG567 in presence of 10U yeast tRNA and 10 units of RNase inhibitor in a final volume of 10 μl of RNA shift buffer for 20 min at room temperature, detected using Biotin Chromogenic Detection kit (ThermoFisher). […] Next, it was evaluated whether NPG567 could stabilize GAS5 in HT22 cells over-expressing UPF1 (from Addgene). UPF1 was transiently transfected for 24 h (UPF oe) or pre-treated with NPG567 (10 nM) for 1 hour followed by transfection of UPF1 for 24 hours. GAS5 levels were measured using SYBR Green qPCR. […]
Methods in brief: Cell culture: Immortalized clonal mouse hippocampal cell line (HT22) (obtained from Salk Institute) and cultured in DMEM+10% FBS. […] The cells are checked for viability and counted and plated into T-25 flasks in neurobasal media with B27 supplement. […]

GAS5 [2] = assay: Binding of side-chain derivatives to GAS5 (preliminary data)
HT22 cells = assay: Toxicity of side-chain derivatives to HT22 cells (preliminary data)

## CC(C)C[C@H]1CN(C(=O)CC2CC2)CC(=O)N[C@@H](CCCCN)CN(C(=O)CCc2ccccc2)CC(=O)N[C@@H](Cc2ccccc2)CN(CC(N)=O)C(=O)CCSCc2ccc(cc2)C(=O)N[C@@H](Cc2ccccc2)CN(C(=O)CC2CC2)CC(=O)N1 [Formula G5-1397]
GAS5 transcript
  binding to GAS5 transcript in RNA-EMSA: bound to GAS5 transcript
DM adipocytes
  cell toxicity in DM adipocytes: without causing cell toxicity

## NCCCC[C@H]1CN(C(=O)CCc2ccccc2)CC(=O)N[C@@H](CCC(=O)O)CN(CC(N)=O)C(=O)CCSCc2ccc(cc2)C(=O)N[C@@H](CCC(=O)O)CN(C(=O)CCC(=O)O)CC(=O)N[C@@H](CCCCN)CN(C(=O)CCCN)CC(=O)N1 [NPG567]
GAS5 transcript
  binding to GAS5 transcript in RNA-EMSA: can bind to GAS5 transcript
GAS5 [1]
  GAS5 levels with UPF1 over-expression: increases GAS5 levels
GAS5 [2]
  binding to GAS5: bound efficiently to GAS5
HT22 cells
  toxicity to HT22 cells: not toxic to HT22 cells
